# Assay results: US20040076663A1, “Complexed-acidic-phospholipid-collagen composites for bone induction” (priority 2002, published 2004)
# System: human osteoblast-like cells, MG-63
# Test: Cell binding to complexed acidic phospholipid collagen composite (cell adherence and proliferation)
# Format: cell-based
# Settings: MG-63 cell cultures; composite sterilized under UV light
# Text: Before usage, the prepared composite was sterilized under UV light.
substance,measurement,value
fibronectin,cell adherence and proliferation,some cells remain in clumps and there appeared to be fewer cells that adhered compared to those exposed to either of the composite formulations
